# Read-outs that look alike come from different tables or passages of the source. *1 amine or outer side, *2 acyl side, *3 side chain or, on linkers, in order; H or OH if unused. Where a SMILES comes first, the peptide text is derived from it. Bridges are numbered along the chain shown (N, C = ends). [ ]: non-standard residue; d: D form. 2Nal = N[C@@H](Cc1ccc2ccccc2c1)C(=O)O; AEF = NCCOc1ccc(C[C@H](N)C(=O)O)cc1; X1 = O=C(Cc1ccc(CN[*:1])cc1)[*:2]; 3Pal = N[C@@H](Cc1cccnc1)C(=O)O; Cit = NC(=O)NCCC[C@H](N)C(=O)O; αMeL = CC(C)C[C@](C)(N)C(=O)O; β3hL = CC(C)C[C@H](N)CC(=O)O; Dab = NCC[C@H](N)C(=O)O
# How the values were obtained:
# [1] = Peptide stability in simulated gastric fluid (SGF); assay type: in vitro ADME; details: pig, pH 1.2, pepsin, 37° C.
# Method: (§1) SGF and SIF were prepared based on the United States Pharmacopeia specifications (Test Solutions, United States Pharmacopeia 35, NF 30, 2012). SGF was prepared by dissolving sodium chloride (0.2 g) in 50 mL of water. A volume of 0.7 mL of 10 M HCl was added to adjust the pH of the solution to 1.2 and the volume made up to 100 mL with water. 64 mg porcine pepsin (P7125, Sigma Aldrich) was gently dissolved into 20 mL preheated (37° C.) solution (3.2 g/L) immediately prior to the incubation. SIF was prepared by dissolving monobasic potassium phosphate (0.68 g) in 50 mL of water and adjusting the pH to 6.8 with 1 M NaOH. The volume was subsequently made up to 100 mL with water. 200 mg porcine pancreatin (P1625, Sigma Aldrich) was gently dissolved into 20 mL preheated (37° C.) solution (10 g/L) immediately prior to the incubation.
# (§2) To initiate the incubations, 20 μL of peptide stock solution in 50% v/v isopropanol was deposited at the bottom of a well plate and 580 μL matrix solution was added to give a final substrate concentration of 10 μM. The incubation was performed at 37° C. with gentle shaking. 70 μL aliquots were removed at 0, 1 and 4 hours and quenched into 210 μL ice-cold precipitant solution (95% v/v acetonitrile with 0.1% v/v formic acid). After the last timepoint, the sampling plate was mixed for 10 min on a shaking table and centrifuged 10 min at 2200 g. 70 μL resulting supernatant was diluted with 150 μL water, mixed and centrifugated before analysis by liquid chromatography high resolution mass spectrometry. The zero sample was reinjected after the 4-hour sample to confirm that no drift in instrument sensitivity had occurred during the run. Percent remaining at each timepoint was calculated relative to timepoint zero based on absolute peak areas.
# (§3) Compounds with a SGF stability (after 4 h) above 70% are considered highly SGF stable. Compounds with a SGF stability (after 4 h) between 30-70% (including 30% and 70%) are considered moderately SGF stable. Compounds with a SGF stability (after 4 h) below 30% are considered SGF unstable. SGF stability values above 100% are due to assay uncertainty and indicate the compound has not degraded.
# [2] = Peptide stability in simulated intestinal fluid (SIF); assay type: in vitro ADME; details: pig, 10 μM
# Method: as §1, §2
# as §3, with “SIF” for “SGF”
# [3] = tested on: IL-23 mediated STAT3 signalling (DB cells); assay: Functional inhibition of IL-23 mediated STAT3 signalling (phospho-STAT3 Tyr705) in DB cells; assay type: cell-based, human; details: for hIL-23 (pSTAT3) antagonist % inhibition: Table 3-2, maximal inhibitory response, EC80 of hIL-23
# In short: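 Phospho-STAT3 in lysed DB cells quantified by MSD kit after 90 min exposure to EC80 human IL-23, following 15 min compound pretreatment (37° C, 5% CO2). IC50 and maximal inhibition derived from curves normalized between IL-23-only and buffer-only controls.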
# human IL-23R = molecular target: T1, human IL-23R (Homo sapiens, UniProt Q5VWK5); assay: Binding assay: displacement of fluorophore (TAMRA)-labelled reference compound from human IL-23R (BRET, Nluc-IL23R fusion protein membranes); details: for Emax: read-out: % displacement (hIL-23R binding)
# T1 construct: Nanoluc luciferase (Nluc); secretion signal encoded by the plasmid (not specified); expressed in transfected cells; crude membranes used in the assay
# T1 sequence (Q5VWK5 22-629): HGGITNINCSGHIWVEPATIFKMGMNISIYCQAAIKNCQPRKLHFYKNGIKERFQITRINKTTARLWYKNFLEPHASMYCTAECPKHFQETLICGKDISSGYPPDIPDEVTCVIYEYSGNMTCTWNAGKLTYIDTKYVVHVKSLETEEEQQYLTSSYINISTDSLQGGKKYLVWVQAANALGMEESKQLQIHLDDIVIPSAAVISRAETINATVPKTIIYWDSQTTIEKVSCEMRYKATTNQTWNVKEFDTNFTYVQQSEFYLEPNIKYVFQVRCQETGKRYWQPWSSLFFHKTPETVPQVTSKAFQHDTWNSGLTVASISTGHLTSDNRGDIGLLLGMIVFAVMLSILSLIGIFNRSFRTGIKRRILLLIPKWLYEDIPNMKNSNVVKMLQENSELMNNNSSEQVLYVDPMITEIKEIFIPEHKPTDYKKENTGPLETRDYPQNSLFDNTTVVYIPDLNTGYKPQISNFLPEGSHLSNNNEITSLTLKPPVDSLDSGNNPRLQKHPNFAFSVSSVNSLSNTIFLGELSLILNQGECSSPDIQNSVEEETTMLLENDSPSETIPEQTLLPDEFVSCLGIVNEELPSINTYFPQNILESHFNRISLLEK
# [4] = simulated intestinal fluid, SIF, pH 6.8, pancreatin, 37° C.
# [5] = simulated intestinal fluid, SIF, pH 6.8, pancreatin, 37° C., read-out: SIF (% remaining 4 h)
# [6] = Table 3-2, EC80 of hIL-23, read-out: hIL-23 (pSTAT3) antagonist IC50
# [7] = EC80 of hIL-23, read-out: IC50 (pSTAT3)
Structure (SMILES),"remaining at 1 h, 10 µM [1] [%]","remaining at 4 h, 10 µM [1] [%]","remaining at 1 h, 10 µM [2, 4] [%]","IC50 [3, 6] [nM]",Emax (human IL-23R) [%],"IC50 [3, 7] [nM]",IC50 (human IL-23R) [nM],"remaining at 4 h, 10 µM ([2]; 37 °C, simulated intestinal fluid pH 6.8 with porcine pancreatin, read-out: SIF (% after 4 h), intact peptide remaining) [%]","remaining at 4 h, 10 µM [2, 5] [%]",hIL-23 (pSTAT3) antagonist % inhibition [3] [%]
"CC(C)C[C@@H]1NC(=O)[C@H](Cc2c[nH]c3ccccc23)NC(=O)[C@H](Cc2c[nH]c3ccccc23)NC(=O)[C@@H]2CSCC(=O)CSC[C@H](NC(=O)[C@H]([C@@H](C)O)NC(=O)[C@@H](NC(=O)CN)CSCC(=O)CSC[C@@H](C(=O)N[C@@H](CO)C(N)=O)NC1=O)C(=O)N[C@@H](Cc1c[nH]c3ccccc13)C(=O)N[C@@H](CCC(=O)O)C(=O)N2 (single isomer, unassigned) [I1 (isomer 3), H-GC(1a)TC(2a)WEC(2a)WWLC(1a)S-[NH2], reference compound]",92,94,0,> 1000,105,,,,0,83
"CSCC[C@H](NC(=O)[C@@H]1CSCC(=O)CSC[C@H](NC(=O)[C@@H](N)CCC(=O)O)C(=O)N[C@@H](Cc2c[nH]c3ccccc23)C(=O)N[C@@H](CC(C)C)C(=O)N[C@H]2CSCC(=O)CSC[C@H](NC(=O)[C@H](CC(N)=O)NC(=O)[C@H](CCCNC(=N)N)NC(=O)[C@H](Cc3ccc(O)cc3)NC(=O)[C@H](Cc3ccc(O)cc3)NC2=O)C(=O)N[C@@H](CC(N)=O)C(=O)N1)C(N)=O (single isomer, unassigned) [I4 (isomer 3), H-EC(4a)WLC(5a)YYRNC(5a)NC(4a)M-[NH2], reference compound]",99,99,0,> 1000,84,,,,0,23
"CC(C)C[C@]1(C)NC(=O)[C@H](Cc2ccc3ccccc3c2)NC(=O)[C@H](Cc2ccc(OCCN)cc2)NC(=O)[C@@H]2CCNC(=O)CC[C@H](NC(=O)[C@H](CO)NC(=O)Cc3ccc(cc3)CNC(=O)CC[C@@H](C(=O)N[C@@H](CCN)C(=O)NCCCCc3cccnc3)NC1=O)C(=O)N[C@@H](Cc1c[nH]c3ccccc13)C(=O)N[C@@H](CCC(N)=O)C(=O)N2 [Compound 6, [4-Aminomethyl-phenylacetyl](1c)*SE(2c)WQ[Dab](2c)[Y(2-aminoethoxy)][2-Nal][2-Me-Leu]E(1c)[Dab]-[NH-(4-(pyridin-3-yl)butanyl)]]",110,108,97,3.2,103,3.2,0.037,,,99
"CNC(=O)[C@H](Cc1cccnc1)NC(=O)C1(NC(=O)[C@@H]2CCC(=O)NCc3ccc(cc3)CC(=O)N[C@@H](CO)C(=O)N[C@H]3CCC(=O)NCC[C@H](NC(=O)[C@H](CCC(N)=O)NC(=O)[C@H](Cc4c[nH]c5ccccc45)NC3=O)C(=O)N[C@@H](Cc3ccc(OCCN)cc3)C(=O)N[C@@H](Cc3ccc4ccccc4c3)C(=O)N[C@@](C)(CC(C)C)C(=O)N2)CCOCC1 [Compound 35, [4-Aminomethyl-phenylacetyl](1c)*SE(2c)WQ[Dab](2c)[Y(2-aminoethoxy)][2-Nal][2-Me-Leu]E(1c)[THP][3-(3-Pyridyl)-Ala]-[NHMe]]",101,,,,101,,0.039,,96,

# Continued, in another order:
"remaining at 1 h, 10 µM [1] [%]","remaining at 4 h, 10 µM [1] [%]","remaining at 1 h, 10 µM [2, 4] [%]","IC50 [3, 6] [nM]",Emax (human IL-23R) [%],"IC50 [3, 7] [nM]",IC50 (human IL-23R) [nM],"remaining at 4 h, 10 µM ([2]; 37 °C, simulated intestinal fluid pH 6.8 with porcine pancreatin, read-out: SIF (% after 4 h), intact peptide remaining) [%]",Structure (SMILES),"remaining at 4 h, 10 µM [2, 5] [%]",hIL-23 (pSTAT3) antagonist % inhibition [3] [%]
98,97,101,0.68,103,0.68,0.024,102,"CC(C)C[C@@H](CC(N)=O)NC(=O)[C@H](Cc1cccnc1)NC(=O)[C@H](CCN)NC(=O)[C@@H]1CCC(=O)NCc2ccc(cc2)CC(=O)N[C@@H](CO)C(=O)N[C@H]2CCC(=O)NCC[C@H](NC(=O)[C@H](CCC(N)=O)NC(=O)[C@H](Cc3c[nH]c4ccccc34)NC2=O)C(=O)N[C@@H](Cc2ccc(OCCN)cc2)C(=O)N[C@@H](Cc2ccc3ccccc3c2)C(=O)N[C@@](C)(CC(C)C)C(=O)N1 [Compound 11, [4-Aminomethyl-phenylacetyl](1c)*SE(2c)WQ[Dab](2c)[Y(2-aminoethoxy)][2-Nal][2-Me-Leu]E(1c)[Dab][3-(3-Pyridyl)-Ala][beta-hLeu]-[NH2]] ([X1]SEWQ[Dab][AEF][2Nal][αMeL]E[Dab][3Pal][β3hL]-NH2; lactam 3-6, N-10)",,98
105,99,89,0.042,,,,,"CNC(=O)[C@H](Cc1cccnc1)NC(=O)[C@H](CCN)NC(=O)[C@@H]1CCC(=O)NCc2ccc(cc2)CC(=O)N[C@@H](CO)C(=O)N[C@H]2CCC(=O)NCC[C@H](NC(=O)[C@H](CCCNC(N)=O)NC(=O)[C@H](Cc3c[nH]c4ccccc34)NC2=O)C(=O)N[C@@H](Cc2ccc(OCCN)cc2)C(=O)N[C@@H](Cc2ccc3ccccc3c2)C(=O)N[C@@](C)(CC(C)C)C(=O)N1 [Compound 26, [4-Aminomethyl-phenylacetyl](1c)*SE(2c)W[Cit][Dab](2c)[Y(2-aminoethoxy)][2-Nal][2-Me-Leu]E(1c)[Dab][3-(3-Pyridyl)-Ala]-[NHMe]] ([X1]SEW[Cit][Dab][AEF][2Nal][αMeL]E[Dab][3Pal]-NHMe; lactam 3-6, N-10)",,100
,90,94,,98,,,,"CCCC[C@H](NC(=O)[C@@H]1CCC(=O)NCc2ccc(cc2)CC(=O)N[C@@H](CO)C(=O)N[C@H]2CCC(=O)NCC[C@H](NC(=O)[C@H](CCC(N)=O)NC(=O)[C@H](Cc3c[nH]c4ccccc34)NC2=O)C(=O)N[C@@H](Cc2ccc(OCCN)cc2)C(=O)N[C@@H](Cc2ccc3ccccc3c2)C(=O)N[C@@](C)(CC(C)C)C(=O)N1)C(=O)N[C@@H](Cc1cccnc1)C(=O)NC [Compound 32, [4-Aminomethyl-phenylacetyl](1c)*SE(2c)WQ[Dab](2c)[Y(2-aminoethoxy)][2-Nal][2-Me-Leu]E(1c)[Nle][3-(3-Pyridyl)-Ala]-[NHMe]]",,
,89,93,,100,,,,"CNC(=O)[C@H](Cc1cccnc1)NC(=O)[C@H](CO)NC(=O)[C@@H]1CCC(=O)NCc2ccc(cc2)CC(=O)N[C@@H](C)C(=O)N[C@H]2CCC(=O)NCC[C@H](NC(=O)[C@H](CCC(N)=O)NC(=O)[C@H](Cc3c[nH]c4ccccc34)NC2=O)C(=O)N[C@@H](Cc2ccc(OCCN)cc2)C(=O)N[C@@H](Cc2ccc3ccccc3c2)C(=O)N[C@@](C)(CC(C)C)C(=O)N1 [Compound 40, [4-Aminomethyl-phenylacetyl](1c)*AE(2c)WQ[Dab](2c)[Y(2-aminoethoxy)][2-Nal][2-Me-Leu]E(1c)S[3-(3-Pyridyl)-Ala]-[NHMe]] ([X1]AEWQ[Dab][AEF][2Nal][αMeL]ES[3Pal]-NHMe; lactam 3-6, N-10)",,
